Laboratory results taken from ChEMBL document CHEMBL3297711, “Application of encoded library technology (ELT) to a protein-protein interaction target: discovery of a potent class of integrin lymphocyte function-associated antigen 1 (LFA-1) antagonists” (Bioorg Med Chem, 2014).
Activity calls are given as the source filed them. The rule behind the calls is not given here.

Legend:
Integrin alpha-L = target: T1, Integrin alpha-L (Homo sapiens, UniProt P20701); assay: (§1) Antagonist activity at C-terminal 6xHis-tagged LFA-1 LBD (unknown origin) expressed in Escherichia coli assessed as inhibition of interaction with ICAM-1 preincubated for 30 mins followed by ICAM-1 addition measured after 60 mins by ELISA
T1 sequence (P20701 whole entry): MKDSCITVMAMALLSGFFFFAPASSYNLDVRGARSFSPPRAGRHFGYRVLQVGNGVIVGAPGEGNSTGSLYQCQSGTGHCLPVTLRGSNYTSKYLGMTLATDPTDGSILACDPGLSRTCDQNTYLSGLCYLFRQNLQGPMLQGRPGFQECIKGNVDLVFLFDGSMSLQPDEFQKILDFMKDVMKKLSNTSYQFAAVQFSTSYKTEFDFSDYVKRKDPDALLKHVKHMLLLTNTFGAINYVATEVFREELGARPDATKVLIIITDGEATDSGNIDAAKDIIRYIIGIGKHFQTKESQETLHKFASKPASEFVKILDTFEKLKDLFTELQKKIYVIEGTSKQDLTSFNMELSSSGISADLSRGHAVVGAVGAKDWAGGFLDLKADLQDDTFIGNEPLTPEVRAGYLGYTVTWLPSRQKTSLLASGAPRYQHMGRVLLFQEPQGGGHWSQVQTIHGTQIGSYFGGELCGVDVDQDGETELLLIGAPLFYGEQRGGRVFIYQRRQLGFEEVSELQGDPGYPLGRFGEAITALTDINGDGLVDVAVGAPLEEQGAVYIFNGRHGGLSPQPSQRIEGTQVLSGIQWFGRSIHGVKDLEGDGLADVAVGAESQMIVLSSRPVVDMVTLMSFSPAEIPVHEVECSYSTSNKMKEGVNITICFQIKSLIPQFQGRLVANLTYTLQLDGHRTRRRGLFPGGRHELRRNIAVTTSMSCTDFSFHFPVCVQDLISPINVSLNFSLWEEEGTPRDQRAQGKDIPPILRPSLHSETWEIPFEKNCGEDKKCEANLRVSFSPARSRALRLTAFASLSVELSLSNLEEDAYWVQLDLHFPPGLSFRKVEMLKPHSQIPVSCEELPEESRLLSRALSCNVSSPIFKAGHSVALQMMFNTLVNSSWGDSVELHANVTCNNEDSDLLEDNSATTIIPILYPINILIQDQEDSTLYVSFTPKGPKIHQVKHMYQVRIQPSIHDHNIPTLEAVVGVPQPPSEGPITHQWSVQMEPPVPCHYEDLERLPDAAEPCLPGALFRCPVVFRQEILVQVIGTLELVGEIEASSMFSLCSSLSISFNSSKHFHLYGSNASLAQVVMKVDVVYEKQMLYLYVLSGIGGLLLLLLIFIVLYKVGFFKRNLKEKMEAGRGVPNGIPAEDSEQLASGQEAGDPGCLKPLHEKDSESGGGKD

[1] = target: T2, Integrin alpha-L (Homo sapiens) (UniProt P20701); assay: Binding affinity to LFA-1 (unknown origin) transfected in human K562 cells by FACS analysis relative to control; assay type: cell-based
T2 sequence (whole entry): T1 sequence (P20701 whole entry)

[2] = target: T2, Integrin alpha-L (Homo sapiens); assay: as §1
[3] = target: T2, Integrin alpha-L (Homo sapiens); assay: Antagonist activity at wild type LFA-1 in human Jurkat cells assessed as inhibition of PMA-stimulated cell adhesion to ICAM-1 at 50 uM incubated for 45 mins under dark condition by microplate fluorimetric analysis; assay type: cell-based
K562 [4] = assay: Allosteric antagonist activity at LFA-1 K287C/K294C double mutant (unknown origin) transfected in human K562 cells assessed as inhibition of cell adhesion to ICAM-1 at 50 uM incubated for 30 mins under dark condition by microplate fluorimetric analysis in presence of DTT; assay type: cell-based
[5] = target: T2, Integrin alpha-L (Homo sapiens); assay: Allosteric antagonist activity at wild type LFA-1 (unknown origin) transfected in human K562 cells assessed as inhibition of cell adhesion to ICAM-1 at 50 uM incubated for 30 mins under dark condition by microplate fluorimetric analysis; assay type: cell-based
K562 [6] = assay: Allosteric antagonist activity at LFA-1 K287C/K294C double mutant (unknown origin) transfected in human K562 cells assessed as inhibition of cell adhesion to ICAM-1 at 50 uM incubated for 30 mins under dark condition by microplate fluorimetric analysis in absence of DTT; assay type: cell-based

CCNC(=O)C1(Nc2nc(N[C@@H](C)c3ccccc3)nc(N3CC4CC3CN4C(=O)c3cccc(C(F)(F)F)c3)n2)Cc2ccccc2C1 (stereo partly drawn)
IC50 (Integrin alpha-L): 180 nM

O=C(O)C1(Nc2nc(NCCc3ccc(Cl)c(Cl)c3)nc(N3CC4CC3CN4S(=O)(=O)c3cccc(C(F)(F)F)c3)n2)Cc2ccccc2C1 (stereo not drawn)
IC50 (Integrin alpha-L): 65 nM

O=C(c1cccc(C(F)(F)F)c1)N1CC2CC1CN2c1nc(NCCc2ccc(Cl)c(Cl)c2)nc(NC2(C(=O)O)Cc3ccccc3C2)n1 (stereo not drawn)
IC50 (Integrin alpha-L): 37 nM

O=C(c1cccc(C(F)(F)F)c1)N1CC2CC1CN2c1nc(NCCc2ccc(Cl)c(Cl)c2)nc(NC2CCCC2)n1 (stereo not drawn)
IC50 (Integrin alpha-L): > 10000 nM

CCN1/C(=C/C=C/C2=[N+](CCCCCC(=O)NCCCCNC(=O)C3(Nc4nc(NCCc5ccc(Cl)c(Cl)c5)nc(N5CC6CC5CN6S(=O)(=O)c5cccc(C(F)(F)F)c5)n4)Cc4ccccc4C3)c3ccc(S(=O)(=O)O)cc3C2(C)C)C(C)(C)c2cc(S(=O)(=O)O)ccc21 (stereo not drawn)
IC50 (Integrin alpha-L): 28 nM
fold change (FC) [1]: 2

CCNC(=O)C1(Nc2nc(N[C@@H](C)c3ccc(Br)cc3)nc(N3CC4CC3CN4S(=O)(=O)c3ccccc3OC(F)(F)F)n2)Cc2ccccc2C1 (stereo partly drawn)
IC50 (Integrin alpha-L): 117 nM
inhibition [2]: Dose-dependent effect
inhibition [3]: Active
inhibition (K562 [4]): Active
inhibition [5]: Active
inhibition (K562 [6]): inactive

CCNC(=O)C1(Nc2nc(NCCc3ccc(Cl)c(Cl)c3)nc(N3CC4CC3CN4S(=O)(=O)c3ccccc3OC(F)(F)F)n2)Cc2ccccc2C1 (stereo not drawn)
IC50 (Integrin alpha-L): 22 nM
inhibition [2]: Dose-dependent effect
inhibition [3]: Active
inhibition (K562 [4]): Active
inhibition [5]: Active
inhibition (K562 [6]): inactive

O=C(c1cccc(C(F)(F)F)c1)N1CC2CC1CN2c1nc(NCCc2ccc(Cl)c(Cl)c2)nc(NC2Cc3ccccc3C2)n1 (stereo not drawn)
IC50 (Integrin alpha-L): 358 nM

CCNC(=O)C1(Nc2nc(NCCc3ccc(Cl)c(Cl)c3)nc(N3CC4CC3CN4C(=O)c3cccc(C(F)(F)F)c3)n2)Cc2ccccc2C1 (stereo not drawn)
IC50 (Integrin alpha-L): 23 nM
inhibition [2]: Dose-dependent effect
inhibition [3]: Active
inhibition (K562 [4]): Active
inhibition [5]: Active
inhibition (K562 [6]): inactive

CCNC(=O)C1(Nc2nc(NCc3ccccc3)nc(N3CC4CC3CN4C(=O)c3cccc(C(F)(F)F)c3)n2)Cc2ccccc2C1 (stereo not drawn)
IC50 (Integrin alpha-L): 7900 nM

CCNC(=O)C1(Nc2nc(NCCc3ccc(Cl)c(Cl)c3)nc(N3CCCC3)n2)Cc2ccccc2C1
IC50 (Integrin alpha-L): 12900 nM

CCNC(=O)C1(Nc2nc(N[C@H](C)c3ccccc3)nc(N3CC4CC3CN4C(=O)c3cccc(C(F)(F)F)c3)n2)Cc2ccccc2C1 (stereo partly drawn)
IC50 (Integrin alpha-L): > 10000 nM

CCNC(=O)C1(Nc2nc(NCCc3ccccc3)nc(N3CC4CC3CN4C(=O)c3cccc(C(F)(F)F)c3)n2)Cc2ccccc2C1 (stereo not drawn)
IC50 (Integrin alpha-L): 488 nM

CCNC(=O)C1(Nc2nc(NCC)nc(N3CC4CC3CN4C(=O)c3cccc(C(F)(F)F)c3)n2)Cc2ccccc2C1 (stereo not drawn)
IC50 (Integrin alpha-L): > 10000 nM

CCNC(=O)C1(Nc2nc(N[C@@H](C)c3ccc(Br)cc3)nc(N3CC4CC3CN4C(=O)c3cccc(C(F)(F)F)c3)n2)Cc2ccccc2C1 (stereo partly drawn)
IC50 (Integrin alpha-L): 16 nM
inhibition [2]: Dose-dependent effect
inhibition [3]: Active
inhibition (K562 [4]): Active
inhibition [5]: Active
inhibition (K562 [6]): inactive

CCN1/C(=C/C=C/C2=[N+](CCCCCC(=O)NCCCCNC(=O)C3(Nc4nc(NCCc5ccc(Cl)c(Cl)c5)nc(N5CC6CC5CN6C(=O)c5cccc(C(F)(F)F)c5)n4)Cc4ccccc4C3)c3ccc(S(=O)(=O)O)cc3C2(C)C)C(C)(C)c2cc(S(=O)(=O)O)ccc21 (stereo not drawn)
IC50 (Integrin alpha-L): 100 nM
fold change (FC) [1]: 3
